Reference: patent US20090004211A1, “METHOD FOR EFFECTING LOCALIZED, NON-SYSTEMIC AND SYSTEMIC, IMMUNOGENIC TREATMENT OF CANCER USING ERP57 TRANSLOCATION” (priority 2006, published 2009)
“Also recorded” adds a separate entry of the source. Non-standard residues stand in square brackets, D forms with d. Residues, ends and D or L forms follow the SMILES beside them. *: point of attachment. Nle = CCCC[C@H](N)C(=O)O; Cbz = O=C(OCc1ccccc1)*; CH2F = FC*

Experiments:
CT26 tumor cells = assay: Anti-tumor vaccination: treated dying CT26 cells injected s.c., challenge with live tumor cells in opposite flank; assay type: in vivo, BALB/c mice
ERP57 [1] = assay: Fluorescence detection of cell surface ERP57 (cytofluorometry); assay type: cell-based, mouse; settings: for time after treatment at which ERP57 exposure is detectable: intact cells; for ERP57 exposure at cell surface: CT26 cells, agent alone; for ERP57 exposure of cells treated with etoposide plus inhibitor: in combination with etoposide
Protocol: CT26 cells (on a glass slide or in 12-well plates) were first washed with FACS buffer (1×PBS, 5% fetus bovine serum, and 0.1% sodium azide) and then incubated with rabbit anti-mouse CRT antibody (1:100, Stressgen), or rabbit anti-mouse ERP57 antibody (abcam) in FACS buffer at 4° C. for 30 min. Cells reacted with anti-rabbit IgG (H+L) Alexa fluor 488-conjugates (1:500) in FACS buffer at 4° C. for 30 min. After washing three times with FACS buffer, surface CRT and ERP57 was detected by cytofluorometric analysis on a FACS Vantage. In some experiments, cells were fixed with 4% paraformaldehyde, counterstained with Hoechst (2 μM; Sigma), followed by fluorescence microscopic assessment.

CRT = assay: Fluorescence detection of cell surface CRT (cytofluorometry); settings: for time after treatment at which CRT exposure is detectable: intact cells; for CRT exposure at cell surface: CT26 cells, agent alone; for CRT exposure of cells treated with etoposide plus inhibitor: in combination with etoposide
Protocol: CT26 cells (on a glass slide or in 12-well plates) were first washed with FACS buffer (1×PBS, 5% fetus bovine serum, and 0.1% sodium azide) and then incubated with rabbit anti-mouse CRT antibody (1:100, Stressgen), or rabbit anti-mouse ERP57 antibody (abcam) in FACS buffer at 4° C. for 30 min. […] After washing three times with FACS buffer, surface CRT and ERP57 was detected by cytofluorometric analysis on a FACS Vantage. In some experiments, cells were fixed with 4% paraformaldehyde, counterstained with Hoechst (2 μM; Sigma), followed by fluorescence microscopic assessment.
Trypsinized CT26 cells were enucleated as described. Briefly, cells were treated in 2 ml of complete RPMI medium containing cytochalasin B (10 μg/ml; Sigma) and DNase I (80 U/ml; Sigma). […] Gradients containing cell suspensions were centrifugated in a prewarmed SW41 Beckman rotor at 25 000 rpm for 20 minutes at 30° C. […] Then the cell surface CRT was detected (see materials and methods) and the viability was determined by with propidium iodine staining (2 μg/ml, Sigma) for 5 min followed by cytofluorometric analysis.

CT26 tumors = assay: Treatment of established CT26 tumors by single intratumoral injection; assay type: in vivo, BALB/c mice
Protocol: All animals were maintained in specific pathogen-free conditions and all experiments followed the FELASA guidelines. 3×10^6 treated CT26 cells were inoculated s.c. in […] of PBS into BALB/c six-week-old female mice, into the lower flank, while 5×10^5 untreated control cells were inoculated into the contralateral flank. For the tumorigenicity assay, 3×10^6 treated or untreated CT26 cells were injected s.c. into nu/nu mice. To assess the specificity of the immune response against CT26, injections of either 5×10^5 or 5×10^6 of CT26 were made (for the mice immunized in a standard protocol or vaccination protocol, respectively). Tumors were evaluated weekly, using a caliper. In a series of experiments, BALB/c (wild type or nu/nu) carrying palpable CT26 tumors (implanted 14 days before for wild type or 7 days before for nu/nu mice by injection of […] tumor cells) received a single intratumoral injection of […] PBS containing the same concentration of anti-cancer agents and PP1/GADD34 inhibitors as those used in vitro, as well as rCRT ([…]). For the assessment of local immune response, 3×10^5 cells were injected in 50 μl into the footpad of mice. Five days later, mice were sacrificed and the draining lymph nodes were harvested. 1×10^5 lymph node cells were cultured for 4 days alone or with 1×10^4 CT26 cells killed by a freeze-thaw cycle in 200 μl in round-bottom 96-well plates. IFN-γ was determined by ELISA.

ERP57 [2] = assay: Fluorescence detection of cell surface ERP57 (cytofluorometry); assay type: cell-based, mouse; settings: murine MCA205, B16F10, J558; human HeLa, A549, HCT116
[3] = CT26 cells treated in vitro with agent alone, immunocompetent BALB/c mice
[4] = agent alone, immunocompetent BALB/c mice, 14-day-old CT26 tumors
[5] = agent alone, immunodeficient nu/nu mice
[6] = pre-incubation for 1 h with the inhibitor
[7] = immunodeficient (athymic) animals

CCCC[C@@H](C=O)NC(=O)[C@H](CC(C)C)NC(=O)[C@H](CC(C)C)NC(C)=O [ALLN] (Ac-Leu-Leu-[Nle]-aldehyde)
immunogenicity of cell death (protection against tumor growth on rechallenge) (CT26 tumor cells; [3]): failed to induce immunogenic apoptosis

CCCCCCCCCCCCC/C=C/[C@@H](O)[C@H](CO)NC(C)=O [C2 ceramide]
immunogenicity of cell death (protection against tumor growth on rechallenge) (CT26 tumor cells; [3]): failed to induce immunogenic apoptosis

CCCCCCCCCCCCC/C=C/[C@@H](O)[C@H](CO)NC(=O)CCCCCCCCCCCCCCC [C16-ceramide]
time after treatment at which ERP57 exposure is detectable (ERP57 [1]): 1 h
time after treatment at which CRT exposure is detectable (CRT): 1 h

CCOc1ccc(-c2nc3ccc(-c4nc5ccc(N6CCN(C)CC6)cc5[nH]4)cc3[nH]2)cc1 [Hoechst 33342]
immunogenicity of cell death (protection against tumor growth on rechallenge) (CT26 tumor cells; [3]): failed to induce immunogenic apoptosis

CC(C)C[C@@H](C=O)NC(=O)[C@H](CC(C)C)NC(=O)[C@H](CC(C)C)NC(=O)OCc1ccccc1 [MG132] (Cbz-Leu-Leu-Leu-aldehyde)
immunogenicity of cell death (protection against tumor growth on rechallenge) (CT26 tumor cells; [3]): failed to induce immunogenic apoptosis

COC(=O)C[C@H](NC(=O)[C@H](C)NC(=O)[C@@H](NC(=O)OCc1ccccc1)C(C)C)C(=O)CF [Z-VAD-fmk] (Cbz-Val-Ala-Asp(OMe)-CH2F)
effect on immunogenicity of doxorubicin-elicited cell death (CT26 tumor cells; combined with doxorubicin): reduces the immunogenicity of doxorubicin-elicited cell death

C[C@H]1CCC/C=C/[C@@H]2C[C@H](O)C[C@H]2[C@H](O)/C=C/C(=O)O1 [brefeldin]
immunogenicity of cell death (protection against tumor growth on rechallenge) (CT26 tumor cells; [3]): failed to induce immunogenic apoptosis

CC[C@@]1(O)C(=O)OCc2c1cc1n(c2=O)Cc2cc3ccccc3nc2-1 [camptothecin]
immunogenicity of cell death (protection against tumor growth on rechallenge) (CT26 tumor cells; [3]): failed to induce immunogenic apoptosis

COc1cc([C@@H]2c3cc4c(cc3[C@@H](O[C@@H]3O[C@@H]5CO[C@@H](C)O[C@H]5[C@H](O)[C@H]3O)[C@H]3COC(=O)[C@H]23)OCO4)cc(OC)c1O [etoposide]
therapeutic effect of single intratumoral injection (CT26 tumors; [4]): no major therapeutic effect
therapeutic effect of single intratumoral injection (CT26 tumors; [5]): no major therapeutic effect
immunogenicity of cell death (protection against tumor growth on rechallenge) (CT26 tumor cells; [3]): failed to induce immunogenic apoptosis; also recorded: poorly immunogenic

CC(=O)[C@]1(O)Cc2c(O)c3c(c(O)c2[C@@H](O[C@H]2C[C@H](N)[C@H](O)[C@H](C)O2)C1)C(=O)c1ccccc1C3=O [idarubicin]
time after treatment at which CRT exposure is detectable (CRT): 1 h
immunogenicity of cell death (protection against tumor growth on rechallenge) (CT26 tumor cells; [3]): elicited immunogenic cell death

C/C1=C/C(=O)O[C@@H]2C[C@@H](CC[C@H](C)/C=C\C=C\CC1)O[C@@](O)([C@@H]1CSC(=O)N1)C2 [latrunculin A]
effect on ERP57 exposure induced by anthracyclines and PP1/GADD34 inhibitors (ERP57 [1]; [6]): abolished
effect on CRT exposure induced by anthracyclines and PP1/GADD34 inhibitors (CRT; [6]): abolished

CC(=O)N[C@@H](CSC(=O)[C@]1([C@@H](O)C(C)C)NC(=O)[C@H](C)[C@@H]1O)C(=O)O [loctacystin]
immunogenicity of cell death (protection against tumor growth on rechallenge) (CT26 tumor cells; [3]): failed to induce immunogenic apoptosis

CO[C@@]12[C@H](COC(N)=O)C3=C(C(=O)C(C)=C(N)C3=O)N1C[C@@H]1N[C@@H]12 [mitomycin C]
therapeutic effect of single intratumoral injection (CT26 tumors; mouse, in vivo): no major therapeutic effect
immunogenicity of cell death (protection against tumor growth on rechallenge) (CT26 tumor cells; [3]): failed to induce immunogenic apoptosis

O=C1[O][Pt]2([NH][C@@H]3CCCC[C@H]3[NH]2)[O]C1=O [oxaliplatin]
time after treatment at which ERP57 exposure is detectable (ERP57 [1]): 1 h
time after treatment at which CRT exposure is detectable (CRT): 1 h

CC(=O)O[C@H]1C(=O)[C@@]2(C)[C@H]([C@H](OC(=O)c3ccccc3)[C@]3(O)C[C@H](OC(=O)[C@H](O)[C@@H](NC(=O)c4ccccc4)c4ccccc4)C(C)=C1C3(C)C)[C@]1(OC(C)=O)CO[C@@H]1C[C@@H]2O [paclitaxel]
time after treatment at which ERP57 exposure is detectable (ERP57 [1]): 1 h
time after treatment at which CRT exposure is detectable (CRT): 1 h

O=C(/C=C/c1ccccc1)NC(NC(=S)Nc1cccc2cccnc12)C(Cl)(Cl)Cl (centres unmarked) [salubrinal]
therapeutic effect of single intratumoral injection (CT26 tumors; [4]): no major therapeutic effect
therapeutic effect of single intratumoral injection (CT26 tumors; [5]): no major therapeutic effect
therapeutic effect of intratumoral injection combined with etoposide or mitomycin C (CT26 tumors; immunocompetent animals): stable disease or complete tumor regression
therapeutic effect of intratumoral injection combined with etoposide or mitomycin C (CT26 tumors; [7]): not in athymic
ERP57 exposure at cell surface (ERP57 [1]): efficiently induced
ERP57 exposure of cells treated with etoposide plus inhibitor (ERP57 [1]): greatly enhanced
ERP57 exposure on panel of tumor cell lines (ERP57 [2]): induced
CRT exposure at cell surface (CRT): efficiently induced
CRT exposure of cells treated with etoposide plus inhibitor (CRT): greatly enhanced
CRT exposure on panel of tumor cell lines (CRT; murine MCA205, B16F10, J558, human HeLa, A549, HCT116): induced
immunogenicity of cell death (protection against tumor growth on rechallenge) (CT26 tumor cells; [3]): not sufficient to induce immunogenic cell death
immunogenic potential of cells succumbing to etoposide or mitomycin C (CT26 tumor cells; inhibitor combined with etoposide or mitomycin C): greatly enhanced

CO[C@H]([C@H](O)CC(=O)[C@@H](C)[C@@H](O)CC[C@@H](C)[C@@H]1O[C@]2(CC[C@@H](C)[C@H](CC[C@H](C)C(C)=O)O2)CC[C@@H]1C)[C@H](OC(=O)C[C@@H](O)C1=C(C)C(=O)OC1=O)C(C)C [tautomycin]
therapeutic effect of single intratumoral injection (CT26 tumors; [4]): no major therapeutic effect
therapeutic effect of single intratumoral injection (CT26 tumors; [5]): no major therapeutic effect
therapeutic effect of intratumoral injection combined with etoposide or mitomycin C (CT26 tumors; immunocompetent animals): stable disease or complete tumor regression
therapeutic effect of intratumoral injection combined with etoposide or mitomycin C (CT26 tumors; [7]): not in athymic
ERP57 exposure at cell surface (ERP57 [1]): efficiently induced
ERP57 exposure of cells treated with etoposide plus inhibitor (ERP57 [1]): greatly enhanced
CRT exposure at cell surface (CRT): efficiently induced
CRT exposure of cells treated with etoposide plus inhibitor (CRT): greatly enhanced
immunogenicity of cell death (protection against tumor growth on rechallenge) (CT26 tumor cells; [3]): not sufficient to induce immunogenic cell death
immunogenic potential of cells succumbing to etoposide or mitomycin C (CT26 tumor cells; mouse, in vivo): greatly enhanced

CC(=O)O[C@@]12CO[C@@H]1C[C@H](O)[C@@]1(C)C(=O)[C@H](O)C3=C(C)[C@@H](OC(=O)[C@H](O)[C@@H](NC(=O)OC(C)(C)C)c4ccccc4)C[C@@](O)([C@@H](OC(=O)c4ccccc4)[C@H]21)C3(C)C [taxotere, Docetaxel]
time after treatment at which ERP57 exposure is detectable (ERP57 [1]): 1 h
time after treatment at which CRT exposure is detectable (CRT): 1 h

C/C=C(/C)C(=O)O[C@H]1C(C)=C2[C@H]([C@@H]1OC(=O)CCCCCCC)[C@@](C)(OC(C)=O)C[C@H](OC(=O)CCC)[C@@]1(O)[C@H]2OC(=O)[C@@]1(C)O [thapsigargin]
immunogenicity of cell death (protection against tumor growth on rechallenge) (CT26 tumor cells; [3]): failed to induce immunogenic apoptosis

arsenite
immunogenicity of cell death (protection against tumor growth on rechallenge) (CT26 tumor cells; mouse, in vivo): failed to induce immunogenic apoptosis

tunicamycin
immunogenicity of cell death (protection against tumor growth on rechallenge) (CT26 tumor cells; [3]): failed to induce immunogenic apoptosis
